Assays:
Assay type in all cases: physicochemical
[1] = Interconversion/slurry experiments of mixed crystalline forms in 2-propanol (XRPD)
Description: About 25 mg of a specific crystalline form of compound (1) and 25 mg of the same or another crystalline form of compound (1) were charged into a vial and 1.0 mL of 2-Propanol was added. The vials were closed and the mixtures were stirred (via shaking using an Eppendorf Thermomixer, starting with 750 rpm, increased to 1000 rpm after 1 day) at an elevated temperature (30±2° C.) for 7 days. Subsequently the mixtures were cooled to 20±2° C. and stirred for an additional 2 hours.
The solids were then separated via filtration using a suction filter. To dry the thus obtained solid material an air flow was applied for 2 to 3 hours.
The crystalline form of the obtained materials was determined using XRPD. The experiments are summarized below in table 2 below.
A mixture of two different crystalline forms of compound (1) was charged into a vial and 1.0 mL of 2-Propanol was added (details see table).
The vials were closed and the mixtures were stirred (by means of shaking, Eppendorf Thermomixer, 750 rpm at first, increased to 1000 rpm after 1 d) at elevated temperature (30±2° C.) for 7 days.
Subsequently, the mixtures were cooled to 20±2° C. and stirred for additional 2 hours.
The solids were then isolated via filtration using a suction filter. The air flow from the suction pump was applied for 2 to 3 hours to dry the isolated solid.

[2] = Dynamic vapor sorption (DVS), hygroscopicity
Description: Crystalline forms were characterized by dynamic vapor sorption (DVS) using a Porotec DVS 1000 or a SMS DVS Intrinsic water vapor sorption analyzer. For the DVS analysis, a step width of 10% r.h. was applied allowing the samples to equilibrate and reach weight constancy (±0.002%) for at least 10 min on each step. All measurements were performed according to the following program: 50% r.h.→90% r.h., 90→0% r.h., 0%→90% r.h., 90%→50% r.h. A cycle with increasing humidity is also known as a sorption cycle, a cycle with decreasing humidity is also known as a desorption cycle. The details of the respective DVS measurements are shown below in table 51 and discussed further below.
The hygroscopicity of the respective crystalline forms determined via the DVS measurements was classified according to the ranges for mass increase defined in the European Pharmacopoeia: very hygroscopic (vh): increase of the mass ≧15%; hygroscopic (h): increase of the mass is less than 15% and equal or greater than 2%; slightly hygroscopic (sh): increase of the mass is less than 2% and equal or greater than 0.2%; not hygroscopic (nh): increase of the mass is less than 0.2%; deliquescent (d): sufficient water is absorbed to form a liquid.

[3] = Slurry of a single crystalline form in solvent, resulting form by XRPD
Description: A quantity of compound (1) is charged into a vial or flask and an amount of solvent is added. The resulting suspension/solution is stirred (e.g. orbital shaker or overhead-stirrer) for a given time at a specific temperature. Subsequently, if the suspension/solution was stirred at an elevated temperature, it is allowed to cool to room temperature or any other predetermined temperature to precipitate or crystallize the product and the solvent is removed by filtration.
The vial was closed and the mixture (a white suspension) was stirred (by means of shaking, 400 rpm, PLS Synthesiser) at room temperature (22±2° C.) for 13 days.
The solid was separated using a suction filter and dried by applying an air flow for additional 5 to 30 minutes (until the solid appeared to be dry).
The vial was closed and the suspension was stirred (by means of shaking, PLS shaker, 400 rpm) at an elevated temperature (40° C.±2) for 20 h.
The mixture was cooled to 20±2° C. The solid was separated using a suction filter (G4) and dried by applying an air flow until the sample appeared to be dry. The white solid was subsequently left for 1 h at ambient conditions.

[4] = Chemical stability of crystalline forms, open-vial storage (content by HPLC, crystalline form by XRPD)
Description: Samples of compound 1 in different crystalline forms were stored in open vials under controlled conditions at different temperatures and rel. humidities for 28 days. Prior to storage and after 14 and 28 days the content of compound (1) in the sample was determined via HPLC and the crystalline form was measured via XRPD.

[5] = Chemical stability in pharmaceutical compositions (excipient mixtures with 10% compound (1)); conditions: listed as A
Description: To test the chemical stability, i.e. compatibility of different crystalline forms of compound (1), solid multi component mixtures were prepared comprising well established excipients used for solid oral dosage form and having different functions therein. The single components of each mixture were exactly weighed and intensively triturated using a mortar and a pestle.
10 g of the final mixtures were separately filled into glass vials (open or closed) and stored under the conditions outlined below in table 13. Samples were taken and analyzed initially and after 1, 2 and 3 months with respect to the content of compound (1) within the mixtures.

CN(C)[C@]1(c2cccc(F)c2)CC[C@]2(CC1)c1[nH]c3ccccc3c1CCN2C(=O)/C=C/c1ccccc1 [A17.9]
resulting crystalline form ([1]; 1.0 mL 2-Propanol, 30±2° C. 7 days, then 20±2° C. 2 hours, XRPD): A + H

CN(C)[C@]1(c2cccc(F)c2)CC[C@]2(CC1)c1[nH]c3ccccc3c1CCN2C(=O)/C=C/c1ccccc1 [crystalline form A, cis-(E)-4-(3-Fluorophenyl)-2′,3′,4′,9′-tetrahydro-N,N-dimethyl-2′-(1-oxo-3-phenyl-2-propenyl)-spiro[cyclohexane-1,1′[1H]-pyrido[3,4-b]indol]-4-amine]
change in mass with increasing/decreasing relative humidity [2]: −0.2 to 0.1%
hysteresis [2]: ≤ 0.5%
hygroscopicity ([2]; classes of European Pharmacopoeia): not hygroscopic or just slightly hygroscopic
thermodynamic stability relative to the other crystalline forms ([1]; conclusion from the interconversion experiments in 2-Propanol): thermodynamically more stable than the other crystalline forms
resulting crystalline form ([3]; suspension in ethanol, 40° C.±2, 20 h): crystalline form A
resulting crystalline form ([3]; suspension in ethylacetate/water 70:30, room temperature (22±2° C.), 13 days): crystalline form A
Content cmpd (1) ([4]; 40° C., 75% r.H., storage 0 d, listed as A): 99.58%
Content cmpd (1) ([4]; 40° C., 75% r.H., storage 14 d, listed as A): 99.63%
Content cmpd (1) ([4]; 40° C., 75% r.H., storage 28 d, listed as A): 99.39%
Content cmpd (1) ([4]; 50° C., storage 0 d, listed as A): 99.58%
Content cmpd (1) ([4]; 50° C., storage 14 d, listed as A): 99.49%
Content cmpd (1) ([4]; 50° C., storage 28 d, listed as A): 99.37%
content of compound (1) within the mixture ([5]; Lactose monohydrate, PVP25, Crospovidone, Talcum, 40° C., 75% rel. hum., 0 month): 99.66
content of compound (1) within the mixture ([5]; Lactose monohydrate, PVP25, Crospovidone, Talcum, 40° C., 75% rel. hum., 1 month): 99.93
content of compound (1) within the mixture ([5]; Lactose monohydrate, PVP25, Crospovidone, Talcum, 40° C., 75% rel. hum., 2 months): 99.72
content of compound (1) within the mixture ([5]; Lactose monohydrate, PVP25, Crospovidone, Talcum, 40° C., 75% rel. hum., 3 months): 99.86
content of compound (1) within the mixture ([5]; Lactose monohydrate, PVP25, Crospovidone, Talcum, 50° C. dry, 0 month): 99.66
content of compound (1) within the mixture ([5]; Lactose monohydrate, PVP25, Crospovidone, Talcum, 50° C. dry, 1 month): 99.58
content of compound (1) within the mixture ([5]; Lactose monohydrate, PVP25, Crospovidone, Talcum, 50° C. dry, 2 months): 99.54
content of compound (1) within the mixture ([5]; Lactose monohydrate, PVP25, Crospovidone, Talcum, 50° C. dry, 3 months): 99.56
content of compound (1) within the mixture ([5]; Microcrystalline cellulose, HPMC 6 mPas, L-HPC LH21, magnesium stearate, 40° C., 75% rel. hum., 0 month): 90.64
content of compound (1) within the mixture ([5]; Microcrystalline cellulose, HPMC 6 mPas, L-HPC LH21, magnesium stearate, 40° C., 75% rel. hum., 1 month): 99.61
content of compound (1) within the mixture ([5]; Microcrystalline cellulose, HPMC 6 mPas, L-HPC LH21, magnesium stearate, 40° C., 75% rel. hum., 2 months): 99.60
content of compound (1) within the mixture ([5]; Microcrystalline cellulose, HPMC 6 mPas, L-HPC LH21, magnesium stearate, 40° C., 75% rel. hum., 3 months): 99.66
content of compound (1) within the mixture ([5]; Microcrystalline cellulose, HPMC 6 mPas, L-HPC LH21, magnesium stearate, 50° C. dry, 0 month): 99.64
content of compound (1) within the mixture ([5]; Microcrystalline cellulose, HPMC 6 mPas, L-HPC LH21, magnesium stearate, 50° C. dry, 1 month): 99.59
content of compound (1) within the mixture ([5]; Microcrystalline cellulose, HPMC 6 mPas, L-HPC LH21, magnesium stearate, 50° C. dry, 2 months): 99.59
content of compound (1) within the mixture ([5]; Microcrystalline cellulose, HPMC 6 mPas, L-HPC LH21, magnesium stearate, 50° C. dry, 3 months): 99.62

CN(C)[C@]1(c2cccc(F)c2)CC[C@]2(CC1)c1[nH]c3ccccc3c1CCN2C(=O)/C=C/c1ccccc1 [crystalline form D, cis-(E)-4-(3-Fluorophenyl)-2′,3′,4′,9′-tetrahydro-N,N-dimethyl-2′-(1-oxo-3-phenyl-2-propenyl)-spiro[cyclohexane-1,1′[1H]-pyrido[3,4-b]indol]-4-amine]
hysteresis (in words) ([2]; sorption and desorption behavior): no significant hysteresis
transformation into another polymorphic form ([3]; suspensions of Table 6: acetonitrile, acetone/water or water, RT or 50° C., 3 to 5 d): did not transform into another polymorphic form
Content cmpd (1) ([4]; 40° C., 75% r.H., storage 0 d, listed as D): 84.61%
Content cmpd (1) ([4]; 40° C., 75% r.H., storage 14 d, listed as D): 84.27%
Content cmpd (1) ([4]; 40° C., 75% r.H., storage 28 d, listed as D): 83.92%
Content cmpd (1) ([4]; 50° C., storage 0 d, listed as D): 84.61%
Content cmpd (1) ([4]; 50° C., storage 14 d, listed as D): 84.65%
Content cmpd (1) ([4]; 50° C., storage 28 d, listed as D): 83.54%

CN(C)[C@]1(c2cccc(F)c2)CC[C@]2(CC1)c1[nH]c3ccccc3c1CCN2C(=O)/C=C/c1ccccc1 [crystalline form E, cis-(E)-4-(3-Fluorophenyl)-2′,3′,4′,9′-tetrahydro-N,N-dimethyl-2′-(1-oxo-3-phenyl-2-propenyl)-spiro[cyclohexane-1,1′[1H]-pyrido[3,4-b]indol]-4-amine]
hysteresis (in words) ([2]; between 10% and 40% relative humidity): significant hysteresis
Content cmpd (1) ([4]; 40° C., 75% r.H., storage 0 d, listed as E): 99.76%
Content cmpd (1) ([4]; 40° C., 75% r.H., storage 14 d, listed as E): 99.80%
Content cmpd (1) ([4]; 40° C., 75% r.H., storage 28 d, listed as E): 99.50%
Content cmpd (1) ([4]; 50° C., storage 0 d, listed as E): 99.76%
Content cmpd (1) ([4]; 50° C., storage 14 d, listed as E): 97.25%
Content cmpd (1) ([4]; 50° C., storage 28 d, listed as E): 95.53%
